Measured values as given in ChEMBL document CHEMBL1201862, “PubChem BioAssay data set” (2004).
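Interpolation was linear, between the two tested concentrations surrounding the appropriate level; five concentrations were tested over 48 hours in 96-well plates. GI50 marks 50% less growth.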 Activity calls are given as the source filed them. Cut-off read from the data, not from the text of the source: active = GI50 up to about 1.1 µM and inactive = higher.

Columns and labels:
Test in all cases: NCI tumour cell line growth inhibition, 48 h
HCT-15 = test system: HCT-15
COLO 205 = test system: COLO 205
SK-MEL-28 = test system: SK-MEL-28
HCC 2998 = test system: HCC 2998
SK-MEL-5 = test system: SK-MEL-5
SK-MEL-2 = test system: SK-MEL-2
EKVX = test system: EKVX
U-251 = test system: U-251
ACHN = test system: ACHN
OVCAR-4 = test system: OVCAR-4
DLD-1 = test system: DLD-1
IGROV-1 = test system: IGROV-1
OVCAR-3 = test system: OVCAR-3
SF-295 = test system: SF-295
A549 = test system: A549
RPMI-8226 = test system: RPMI-8226
NCI-H522 = test system: NCI-H522
HL-60 = test system: HL-60

Row | SMILES | GI50 (HCT-15) | GI50 (COLO 205) | GI50 (SK-MEL-28) | GI50 (HCC 2998) | GI50 (SK-MEL-5) | GI50 (SK-MEL-2) | GI50 (EKVX) | GI50 (U-251) | GI50 (ACHN) | GI50 (OVCAR-4) | GI50 (DLD-1) | GI50 (IGROV-1) | GI50 (OVCAR-3) | GI50 (SF-295) | GI50 (A549) | GI50 (RPMI-8226) | GI50 (NCI-H522) | GI50 (HL-60)
1 | NC(N)NCCCc1cn2c(n1)C1CCCN1C(=O)C2Cc1ccccc1 (centres undefined) | > 100 µM | > 100 µM (inactive) | > 100 µM (inactive) | > 100 µM (inactive) | > 100 µM (inactive) | > 100 µM (inactive) | > 100 µM (inactive) | > 100 µM (inactive) | > 100 µM (inactive) | > 100 µM (inactive) | > 100 µM (inactive) | > 100 µM (inactive) | > 100 µM (inactive) | > 100 µM (inactive) | > 100 µM (inactive) | > 100 µM (inactive) | > 100 µM (inactive) | –
2 | O=C(Cc1nc2ccccc2s1)C(=O)Nc1ccc(Cl)cc1 | > 100 µM | > 100 µM (inactive) | > 100 µM (inactive) | > 100 µM (inactive) | > 100 µM (inactive) | > 100 µM (inactive) | > 100 µM (inactive) | > 100 µM (inactive) | > 100 µM (inactive) | > 100 µM (inactive) | > 100 µM (inactive) | > 100 µM (inactive) | > 100 µM (inactive) | > 100 µM (inactive) | > 100 µM (inactive) | > 100 µM (inactive) | > 100 µM (inactive) | > 100 µM (inactive)
3 | CCOC(=O)C12CCCC1(O)N(NC(=O)OC(C)(C)C)C(C)=C2C(=O)OC (centres undefined) | > 100 µM | > 100 µM (inactive) | > 10 µM (inactive) | > 100 µM (inactive) | – | > 100 µM (inactive) | > 100 µM (inactive) | > 100 µM (inactive) | > 100 µM (inactive) | > 100 µM (inactive) | > 100 µM (inactive) | > 100 µM (inactive) | > 100 µM (inactive) | > 100 µM (inactive) | > 100 µM (inactive) | > 100 µM (inactive) | 97.3 µM (inactive) | > 100 µM (inactive)
4 | Cc1c(C2Cc3ccccc3N2)c2ccccc2n1C (centres undefined) | 36.3 µM | > 100 µM (inactive) | – | > 100 µM (inactive) | > 100 µM (inactive) | > 100 µM (inactive) | > 100 µM (inactive) | > 100 µM (inactive) | > 100 µM (inactive) | > 100 µM (inactive) | > 100 µM (inactive) | > 100 µM (inactive) | > 100 µM (inactive) | > 100 µM (inactive) | > 100 µM (inactive) | – | > 100 µM (inactive) | > 100 µM (inactive)
5 | O=c1c2ccccc2[nH]c(=S)n1-c1ccc(Br)cc1 | 71.9 µM | > 100 µM (inactive) | > 100 µM (inactive) | > 100 µM (inactive) | – | > 100 µM (inactive) | > 100 µM (inactive) | > 100 µM (inactive) | 42.5 µM (inactive) | 44.8 µM (inactive) | 49.7 µM (inactive) | 71.4 µM (inactive) | 45.1 µM (inactive) | 66.8 µM (inactive) | 33.3 µM (inactive) | 40.1 µM (inactive) | 43.1 µM (inactive) | > 100 µM (inactive)
6 | COC(=O)[C@@H]1C(=O)O[C@@H](c2cc(OC)c(OC)cc2OC)[C@@H]1C(=O)OC.COC(=O)[C@H]1C(=O)O[C@@H](c2cc(OC)c(OC)cc2OC)[C@@H]1C(=O)OC | > 100 µM | > 100 µM (inactive) | > 100 µM (inactive) | > 100 µM (inactive) | > 100 µM (inactive) | – | > 100 µM (inactive) | > 100 µM (inactive) | > 100 µM (inactive) | > 100 µM (inactive) | > 100 µM (inactive) | > 100 µM (inactive) | > 100 µM (inactive) | > 100 µM (inactive) | > 100 µM (inactive) | > 100 µM (inactive) | > 100 µM (inactive) | > 100 µM (inactive)
7 | O=C1NC2OC(CO)C(O)C(O1)C2O (centres undefined) | > 100 µM | > 100 µM (inactive) | > 100 µM (inactive) | – | > 100 µM (inactive) | > 100 µM (inactive) | > 100 µM (inactive) | > 100 µM (inactive) | > 100 µM (inactive) | > 100 µM (inactive) | > 100 µM (inactive) | > 100 µM (inactive) | > 100 µM (inactive) | > 100 µM (inactive) | – | > 100 µM (inactive) | > 100 µM (inactive) | > 100 µM (inactive)
8 | COc1ccc(NC(=O)CC2S/C(=N\c3ccccc3C)NC2=O)c([N+](=O)[O-])c1 (centres undefined) | > 100 µM | > 100 µM (inactive) | > 100 µM (inactive) | > 100 µM (inactive) | – | > 100 µM (inactive) | – | > 100 µM (inactive) | > 100 µM (inactive) | > 100 µM (inactive) | > 100 µM (inactive) | > 100 µM (inactive) | > 100 µM (inactive) | > 100 µM (inactive) | > 100 µM (inactive) | > 100 µM (inactive) | 25.4 µM (inactive) | > 100 µM (inactive)
